How the values were obtained:
Test in all cases: relative viability (nuclei count vs DMSO), 5 days (fraction); higher = more cells survive
Lapatinib + Tozasertib = compound: CS(=O)(=O)CCNCc1ccc(-c2ccc3ncnc(Nc4ccc(OCc5cccc(F)c5)c(Cl)c4)c3c2)o1 [Lapatinib] + Cc1cc(Nc2cc(N3CCN(C)CC3)nc(Sc3ccc(NC(=O)C4CC4)cc3)n2)n[nH]1 [Tozasertib] (partner 0.1 µM)
In short: (§1)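 Lung cancer cell lines in 1536-well plates were dosed by pin tool the day after seeding, either with one drug alone or with a fixed anchor-drug dose plus five library-drug doses (not always all listed) in √10 steps. After 5 days, cells were fixed and their nuclei stained in one step (final 0.05% Triton X-100, 1% formaldehyde, 1 ug/ml Hoechst), then counted on 4× images. Relative viability is the nuclei count in treated wells divided by that in vehicle wells. Values are medians of duplicate plates.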

Wnt-C59 + Pemetrexed = compound: CC1=NC=CC(=C1)C2=CC=C(C=C2)CC(=O)NC3=CC=C(C=C3)C4=CN=CC=C4 [Wnt-C59] + Nc1nc2[nH]cc(CCc3ccc(C(=O)N[C@@H](CCC(=O)O)C(=O)O)cc3)c2c(=O)[nH]1 [Pemetrexed] (partner 0.2 µM)
In short: as §1

Wnt-C59 + Olaparib = compound: CC1=NC=CC(=C1)C2=CC=C(C=C2)CC(=O)NC3=CC=C(C=C3)C4=CN=CC=C4 [Wnt-C59] + O=C(c1cc(Cc2n[nH]c(=O)c3ccccc23)ccc1F)N1CCN(C(=O)C2CC2)CC1 [Olaparib] (partner 8 µM)
In short: as §1

Lapatinib + Phenformin = compound: CS(=O)(=O)CCNCc1ccc(-c2ccc3ncnc(Nc4ccc(OCc5cccc(F)c5)c(Cl)c4)c3c2)o1 [Lapatinib] + N=C(N)NC(=N)NCCc1ccccc1 [Phenformin] (partner 250 µM)
In short: as §1

Row | Cell Line | relative viability (Lapatinib + Tozasertib; first compound 0.02 µM) | relative viability (Lapatinib + Tozasertib; first compound 0.06325 µM) | relative viability (Lapatinib + Tozasertib; first compound 0.2 µM) | relative viability (Lapatinib + Tozasertib; first compound 0.6325 µM) | relative viability (Lapatinib + Tozasertib; first compound 2 µM) | relative viability (Wnt-C59 + Pemetrexed; first compound 0.001 µM) | relative viability (Wnt-C59 + Pemetrexed; first compound 0.01 µM) | relative viability (Wnt-C59 + Pemetrexed; first compound 0.03162 µM) | relative viability (Wnt-C59 + Pemetrexed; first compound 0.1 µM) | relative viability (Wnt-C59 + Olaparib; first compound 0.001 µM) | relative viability (Wnt-C59 + Olaparib; first compound 0.01 µM) | relative viability (Wnt-C59 + Olaparib; first compound 0.03162 µM) | relative viability (Wnt-C59 + Olaparib; first compound 0.1 µM) | relative viability (Lapatinib + Phenformin; first compound 0.02 µM) | relative viability (Lapatinib + Phenformin; first compound 0.06325 µM) | relative viability (Lapatinib + Phenformin; first compound 0.2 µM) | relative viability (Lapatinib + Phenformin; first compound 0.6325 µM) | relative viability (Lapatinib + Phenformin; first compound 2 µM)
1 | NCI-H2009 | 0.732 | 0.633 | 0.78 | 0.714 | 0.492 | 0.988 | 1.11 | 1.07 | 1.04 | 0.644 | 0.765 | 0.734 | 0.727 | 0.528 | 0.484 | 0.507 | 0.513 | 0.457
2 | NCI-H1944 | 0.245 | 0.216 | 0.239 | 0.205 | 0.181 | 0.615 | 0.594 | 0.639 | 0.602 | 0.463 | 0.396 | 0.343 | 0.388 | 0.178 | 0.14 | 0.188 | 0.193 | 0.186
3 | NCI-H838 | 0.235 | 0.257 | 0.256 | 0.258 | 0.221 | 0.235 | 0.24 | 0.267 | 0.242 | 0.765 | 0.806 | 0.807 | 0.739 | 0.685 | 0.381 | 0.675 | 0.683 | 0.511
4 | NCI-H2126 | – | 0.664 | 0.844 | 0.712 | 0.547 | 0.688 | 0.655 | 0.642 | 0.649 | 0.896 | 0.952 | 0.88 | 0.905 | – | 0.393 | 0.529 | 0.536 | 0.406
5 | NCI-H1975 | 0.583 | 0.516 | 0.25 | 0.178 | 0.167 | 0.321 | 0.307 | 0.288 | 0.311 | 0.797 | 0.807 | 0.786 | 0.869 | 0.413 | 0.362 | 0.385 | 0.399 | 0.385
6 | NCI-H650 | – | 0.648 | 0.781 | 0.698 | 0.601 | 1.09 | 0.969 | 0.934 | 0.951 | 0.415 | 0.354 | 0.418 | 0.454 | – | 0.467 | 0.428 | 0.456 | 0.473
7 | A-427 | – | 0.252 | 0.209 | 0.231 | 0.185 | 0.936 | 1.04 | 0.994 | 1.1 | 0.767 | 0.79 | 0.751 | 0.789 | – | 0.279 | 0.346 | 0.317 | 0.367
8 | NCI-H1993 | 0.518 | – | 0.574 | 0.518 | 0.486 | 0.67 | 0.591 | 0.609 | 0.625 | 1.17 | 1.06 | 1.11 | 0.413 | 0.597 | – | 0.509 | 0.583 | 0.556
9 | CAL-12T | – | 0.274 | 0.333 | 0.273 | 0.122 | 1.33 | 1.18 | 1.29 | 1.09 | 0.727 | 0.689 | 0.674 | 0.783 | – | 0.474 | 0.5 | 0.404 | 0.337

— the supplement of paper PMC10307832
